These results are taken from US10336761B2, “TGFβ receptor antagonist” (BRISTOL-MYERS SQUIBB COMPANY, priority 2015, dated 2019).

The test deals with HIS-TGFβR1 T204D (Homo sapiens (Human), UniProt P36897, T204D). The test can be described thus: HTRF probe-displacement assay, HIS-TGFβR1 T204D. It counts as binding. Particulars: 1 hour at room temperature.
HIS-TGFβR1 T204D, sequence (P36897 34-503 T204D): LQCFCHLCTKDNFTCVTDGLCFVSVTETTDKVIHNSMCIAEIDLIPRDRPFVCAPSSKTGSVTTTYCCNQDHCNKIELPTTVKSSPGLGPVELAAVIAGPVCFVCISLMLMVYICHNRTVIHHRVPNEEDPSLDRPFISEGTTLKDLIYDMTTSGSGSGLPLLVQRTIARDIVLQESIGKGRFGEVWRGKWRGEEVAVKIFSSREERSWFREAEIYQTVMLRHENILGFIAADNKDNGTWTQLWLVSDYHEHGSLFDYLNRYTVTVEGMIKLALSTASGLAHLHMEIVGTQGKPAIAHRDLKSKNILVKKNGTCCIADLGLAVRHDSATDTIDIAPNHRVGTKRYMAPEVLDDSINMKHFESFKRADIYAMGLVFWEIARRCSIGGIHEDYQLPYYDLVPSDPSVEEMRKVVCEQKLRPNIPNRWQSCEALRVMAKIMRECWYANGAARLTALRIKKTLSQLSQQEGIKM
`Cc1cccc(-c2nc(Nc3ccncc3C(=O)NCCN3CCS(=O)(=O)CC3)c3cccn3n2)n1` [Example 153, N-[2-(1,1-dioxo-1,4-thiomorpholin-4-yl)ethyl]-4-{[2-(6-methylpyridin-2-yl)pyrrolo[2,1-f][1,2,4]triazin-4-yl]amino}pyridine-3-carboxamide] displayed an IC50 of 0.022 µM. On to `COc1cccc(-c2nc(Nc3ccncc3F)c3cc(C(C)(C)O)cn3n2)n1` [Example 39, 2-{4-[(3-fluoropyridin-4-yl)amino]-2-(6-methoxypyridin-2-yl)pyrrolo[2,1-f][1,2,4]triazin-6-yl}propan-2-ol], for which the concentration for half-maximal inhibition (IC50) stood at 1.6 µM.

Take `COc1cccc(-c2nc(Nc3ccncc3N)c3cccn3n2)n1` [Example 95, 4-N-[2-(6-methoxypyridin-2-yl)pyrrolo[2,1-f][1,2,4]triazin-4-yl]pyridine-3,4-diamine]: the IC50 was determined as 0.02 µM.

`COc1cccc(-c2nc(Nc3ccnc(NCCN4CCC(O)CC4)c3)c3c(C)ccn3n2)n1` [Example 136, 1-{2-[(4-{[2-(6-methoxypyridin-2-yl)-5-methylpyrrolo[2,1-f][1,2,4]triazin-4-yl]amino}pyridin-2-yl)amino]ethyl}piperidin-4-ol] yielded a concentration for half-maximal inhibition (IC50) of 0.72 µM.

For the molecule `O[C@@H](CNCc1ccn2nc(-c3ccccn3)nc(Nc3ccncc3F)c12)c1ccccc1` [Example 310, (1R)-2-[({4-[(3-fluoropyridin-4-yl)amino]-2-(pyridin-2-yl)pyrrolo[2,1-f][1,2,4]triazin-5-yl}methyl)amino]-1-phenylethan-1-ol], the IC50 was 0.004 µM. Under `Fc1cc(Nc2nc(-c3cccc(C(F)(F)F)n3)nn3cccc23)ccn1` [Example 256, 2-fluoro-N-{2-[6-(trifluoromethyl)pyridin-2-yl]pyrrolo[2,1-f][1,2,4]triazin-4-yl}pyridin-4-amine] stands 0.25 µM. As for `CC(=O)Nc1cc(Nc2nc(-c3ccc(F)c(C(F)F)n3)nn3cccc23)ccn1` [Example 11, N-[4-({2-[6-(difluoromethyl)-5-fluoropyridin-2-yl]pyrrolo[2,1-f][1,2,4]triazin-4-yl}amino)pyridin-2-yl]acetamide], the IC50 amounted to 0.0061 µM.

`CC(O)CNCc1ccn2nc(-c3ccccn3)nc(Nc3ccncc3F)c12` (centres unmarked) [Example 239, 1-[({4-[(3-fluoropyridin-4-yl)amino]-2-(pyridin-2-yl)pyrrolo[2,1-f][1,2,4]triazin-5-yl}methyl)amino]propan-2-ol] gave an IC50 of 0.0012 µM. Regarding `CC(=O)Nc1cc(Nc2nc(-c3cccc(C(F)(F)F)n3)nn3ccc(CNCC(C)(C)O)c23)ccn1` [Example 254, N-{4-[(5-{[(2-hydroxy-2-methylpropyl)amino]methyl}-2-[6-(trifluoromethyl)pyridin-2-yl]pyrrolo[2,1-f][1,2,4]triazin-4-yl)amino]pyridin-2-yl}acetamide], the IC50 is 0.002 µM. For the molecule `CCOC(=O)CNC(=O)c1cnccc1Nc1nc(-c2cccc(C(F)F)n2)nn2cccc12` [Example 190, Ethyl 2-{[4-({2-[6-(difluoromethyl)pyridin-2-yl]pyrrolo[2,1-f][1,2,4]triazin-4-yl}amino)pyridin-3-yl]formamido}acetate], the concentration for half-maximal inhibition (IC50) was 0.022 µM. Against the preceding molecule, the IC50 is about 11-fold higher.

In turn, `Fc1cnccc1Nc1nc(-c2ccccn2)nn2ccc(CNC3CCNCC3)c12` [Example 307, 3-fluoro-N-(5-{[(piperidin-4-yl)amino]methyl}-2-(pyridin-2-yl)pyrrolo[2,1-f][1,2,4]triazin-4-yl)pyridin-4-amine] displayed a half-maximal inhibitory concentration (IC50) of 0.0091 µM. This IC50 lies about 2.4-fold lower than the previous one.

The molecule `COc1cccc(-c2nc(Nc3ccnc(NCC(C)(C)O)c3)c3cccn3n2)n1` [Example 133, 1-[(4-{[2-(6-methoxypyridin-2-yl)pyrrolo[2,1-f][1,2,4]triazin-4-yl]amino}pyridin-2-yl)amino]-2-methylpropan-2-ol] came in with an IC50 of 3.3 µM. Turning to `Fc1cnccc1Nc1nc(-c2ccccn2)nn2ccc(CNCC(F)(F)F)c12` [Example 268, 3-fluoro-N-[2-(pyridin-2-yl)-5-{[(2,2,2-trifluoroethyl)amino]methyl}pyrrolo[2,1-f][1,2,4]triazin-4-yl]pyridin-4-amine], the half-inhibitory concentration (IC50) turned out to be 0.0011 µM. As to `OC1(c2ccccc2)CCN(Cc2ccn3nc(-c4ccccn4)nc(Nc4ccncc4F)c23)CC1` [Example 277, 1-({4-[(3-fluoropyridin-4-yl)amino]-2-(pyridin-2-yl)pyrrolo[2,1-f][1,2,4]triazin-5-yl}methyl)-4-phenylpiperidin-4-ol], the IC50 stood at 0.0015 µM. Then `OC[C@@H](O)CNCc1ccn2nc(-c3ccccn3)nc(Nc3ccncc3F)c12` [Example 287, (2S)-3-[({4-[(3-fluoropyridin-4-yl)amino]-2-(pyridin-2-yl)pyrrolo[2,1-f][1,2,4]triazin-5-yl}methyl)amino]propane-1,2-diol], with 0.00084 µM. Then `Fc1cnccc1Nc1nc(-c2ccccn2)nn2ccc(CNc3cc(-c4ccccc4)[nH]n3)c12` [Example 298, 3-fluoro-N-(5-{[(5-phenyl-1H-pyrazol-3-yl)amino]methyl}-2-(pyridin-2-yl)pyrrolo[2,1-f][1,2,4]triazin-4-yl)pyridin-4-amine], with 0.027 µM. Molecule `COC(=O)Nc1cc(Nc2nc(-c3cccc(C(F)(F)F)n3)nn3cccc23)ccn1` [Example 312, Methyl N-[4-({2-[6-(trifluoromethyl)pyridin-2-yl]pyrrolo[2,1-f][1,2,4]triazin-4-yl}amino)pyridin-2-yl]carbamate] showed an IC50 of 0.00087 µM. Under `COCC(=O)Nc1cc(Nc2nc(-c3cccc(C(F)(F)F)n3)nn3cccc23)ccn1` [Example 336, 2-methoxy-N-[4-({2-[6-(trifluoromethyl)pyridin-2-yl]pyrrolo[2,1-f][1,2,4]triazin-4-yl}amino)pyridin-2-yl]acetamide] stands 0.0016 µM.

In turn, `Cc1csc(-c2nc(Nc3ccncc3Cl)c3cccn3n2)n1` [Example 87, 3-chloro-N-[2-(4-methyl-1,3-thiazol-2-yl)pyrrolo[2,1-f][1,2,4]triazin-4-yl]pyridin-4-amine] had a concentration for half-maximal inhibition (IC50) of 0.00092 µM. Then `COc1cccc(-c2nc(Nc3ccncc3F)c3cc(NC(=O)N4CCOCC4)cn3n2)n1` [Example 105, N-{4-[(3-fluoropyridin-4-yl)amino]-2-(6-methoxypyridin-2-yl)pyrrolo[2,1-f][1,2,4]triazin-6-yl}morpholine-4-carboxamide], with 0.69 µM; and `Cc1cccc(-c2nc(Nc3ccncc3OCCCN3CCOCC3)c3cccn3n2)n1` [Example 222, N-[2-(6-methylpyridin-2-yl)pyrrolo[2,1-f][1,2,4]triazin-4-yl]-3-[3-(morpholin-4-yl)propoxy]pyridin-4-amine], with 0.067 µM.

The molecule `COc1cccc(-c2nc(Nc3ccncc3F)c3c(CNC[C@@H](F)C(C)(C)O)ccn3n2)n1` [Example 120, (3R)-3-fluoro-4-[({4-[(3-fluoropyridin-4-yl)amino]-2-(6-methoxypyridin-2-yl)pyrrolo[2,1-f][1,2,4]triazin-5-yl}methyl)amino]-2-methylbutan-2-ol] yielded an IC50 of 0.098 µM.

Regarding `Cc1cccc(-c2nc(Nc3ccncc3C(=O)NC(C)(C)CO)c3cccn3n2)n1` [Example 157, N-(1-hydroxy-2-methylpropan-2-yl)-4-{[2-(6-methylpyridin-2-yl)pyrrolo[2,1-f][1,2,4]triazin-4-yl]amino}pyridine-3-carboxamide], the half-maximal inhibitory concentration (IC50) is 0.034 µM.

For the molecule `CN1CCN(Cc2ccn3nc(-c4cccc(C(F)(F)F)n4)nc(Nc4ccncc4F)c23)CC1` [Example 26, 3-fluoro-N-{5-[(4-methylpiperazin-1-yl)methyl]-2-[6-(trifluoromethyl)pyridin-2-yl]pyrrolo[2,1-f][1,2,4]triazin-4-yl}pyridin-4-amine], the half-maximal inhibitory concentration (IC50) is 0.032 µM. The IC50 values of the last two molecules are within 1.5-fold of each other.

`COc1cccc(-c2nc(Nc3ccncc3COCCCN3CCOCC3)c3cccn3n2)n1` [Example 38, N-[2-(6-methoxypyridin-2-yl)pyrrolo[2,1-f][1,2,4]triazin-4-yl]-3-{[3-(morpholin-4-yl)propoxy]methyl}pyridin-4-amine] returned an IC50 of 0.68 µM. Then `Fc1cnccc1Nc1nc(-c2cscn2)nn2cccc12` [Example 262, 3-fluoro-N-[2-(1,3-thiazol-4-yl)pyrrolo[2,1-f][1,2,4]triazin-4-yl]pyridin-4-amine], with 0.0082 µM; and `COc1cccc(-c2nc(Nc3ccncc3F)c3c(C(O)CN4CCN(C)CC4)ccn3n2)n1` (centres unmarked) [Example 128, 1-{4-[(3-fluoropyridin-4-yl)amino]-2-(6-methoxypyridin-2-yl)pyrrolo[2,1-f][1,2,4]triazin-5-yl}-2-(4-methylpiperazin-1-yl)ethan-1-ol], with 0.95 µM; and `O=C(CCN1CC(F)(F)C1)Nc1cc(Nc2nc(-c3cccc(C(F)(F)F)n3)nn3cccc23)ccn1` [Example 341, 3-(3,3-difluoroazetidin-1-yl)-N-[4-({2-[6-(trifluoromethyl)pyridin-2-yl]pyrrolo[2,1-f][1,2,4]triazin-4-yl}amino)pyridin-2-yl]propanamide], with 0.0027 µM. Then `CN1CCN(Cc2ccn3nc(-c4ccc(F)cn4)nc(Nc4ccncc4F)c23)CC1` [Example 234, 3-fluoro-N-[2-(5-fluoropyridin-2-yl)-5-[(4-methylpiperazin-1-yl)methyl]pyrrolo[2,1-f][1,2,4]triazin-4-yl]pyridin-4-amine], with 0.003 µM; and `CN(C)C1CCC(NCc2ccn3nc(-c4ccccn4)nc(Nc4ccncc4F)c23)CC1` (centres unmarked) [Example 245, 4-N-({4-[(3-fluoropyridin-4-yl)amino]-2-(pyridin-2-yl)pyrrolo[2,1-f][1,2,4]triazin-5-yl}methyl)-1-N, 1-N-dimethylcyclohexane-1,4-diamine], with 0.001 µM; and `Cn1nccc1-c1nc(Nc2ccncc2F)c2cccn2n1` [Example 10, 3-fluoro-N-[2-(1-methyl-1H-pyrazol-5-yl)pyrrolo[2,1-f][1,2,4]triazin-4-yl]pyridin-4-amine], with 0.61 µM. Then `CCOCCCNC(=O)c1cnccc1Nc1nc(-c2cccc(C(F)F)n2)nn2cccc12` [Example 172, 4-({2-[6-(difluoromethyl)pyridin-2-yl]pyrrolo[2,1-f][1,2,4]triazin-4-yl}amino)-N-(3-ethoxypropyl)pyridine-3-carboxamide], with 0.024 µM.
